In one assay the test system is Uromyces viciae-fabae. In words: […] activity against Uromyces fabae. Type of assay: functional.
The subject of a further assay is Zymoseptoria tritici. Put plainly: […] activity against Septoria tritici. The assay is classed as functional.
The next assay deals with Plutella xylostella. Put plainly: Insecticidal activity against Plutella xylostella. Type of assay: functional.
The next assay concerns Heliothis virescens. In words: Insecticidal activity against Heliothis virescens. Type of assay: functional.
The next assay has as its system Aphis gossypii. Put plainly: Insecticidal activity against Aphis gossypii. Type of assay: functional.
The test system of another assay is HepG2. Put plainly: Cytotoxicity against human HepG2 cells. The assay is classed as functional, cell-based.
Assay [1] is described as follows: Cytotoxicity against human KBv200 cells. The assay is classed as functional, cell-based.
Another assay relates to KB. In words: Cytotoxicity against human KB cells. The assay is classed as functional, cell-based.
In another assay the test system is HeLa. In words: Cytotoxicity against human HeLa cells. The assay is classed as functional, cell-based.
In the next assay the test system is HEp-2. Put plainly: Cytotoxicity against human Hep2 cells. The assay is classed as functional, cell-based.
Assay [2] is described as follows: Cytotoxicity against human 95-D cells. The assay is classed as functional, cell-based.

Converted amounts (≈) assume the structure as drawn. A value given as a limit tells only on which side of the number the result lay.

In the case of `Cn1c2c(c(=O)c3ccccc31)C(=O)n1cccc1-2` [PENICINOTAM], the min. effective conc. in the assay on Uromyces viciae-fabae is more than 1000 ppm; in the assay on Zymoseptoria tritici, more than 1000 ppm; with Plutella xylostella it was 500 ppm; in the assay on Heliothis virescens, more than 1000 ppm; with Aphis gossypii it was 1000 ppm.
For the compound `O=C(O)c1c(-c2ccc[nH]2)[nH]c2ccccc2c1=O` [PENICINOLINE], the min. effective conc. is more than 1000 ppm in the assay with Uromyces viciae-fabae; more than 1000 ppm in the assay on Zymoseptoria tritici; more than 1000 ppm with Plutella xylostella; more than 1000 ppm in the assay with Heliothis virescens; 1000 ppm in the assay with Aphis gossypii. For the same compound, the IC50 (as a rule, the concentration that gives 50% inhibition) is 6.5 µg/mL (≈ 25.6 µM) with HepG2; more than 100 µg/mL in [1]; more than 100 µg/mL with KB; more than 100 µg/mL in the assay with HeLa; more than 100 µg/mL with HEp-2; 0.57 µg/mL (≈ 2.24 µM) in [2].

These data come from ChEMBL document CHEMBL1155505, “Penicinoline, a new pyrrolyl 4-quinolinone alkaloid with an unprecedented ring system from an endophytic fungus Penicillium sp” (Bioorg Med Chem Lett, 2010).
